# According to PubChem BioAssay (NCI):
#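 In this assay, cells in 96-well plates receive the compound at five concentrations for 48 hours. Endpoints are linearly interpolated between the surrounding concentrations. At the TGI there is no net growth.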
# Assays:
# Experiment in all cases: NCI-60 cell line screen, 48 h
# [1] = test system: BT-549 breast
# [2] = test system: A498 renal
# [3] = test system: UACC-257 melanoma
# [4] = test system: HS 578T breast
# [5] = test system: SK-MEL-5 melanoma
# [6] = test system: RXF 393 renal
# [7] = test system: HOP-62 NSCLC
# [8] = test system: CAKI-1 renal
# [9] = test system: U251 CNS
# [10] = test system: SN12C renal
# [11] = test system: OVCAR-3 ovarian
# [12] = test system: SF-539 CNS
# [13] = test system: HCC-2998 colon
SMILES,TGI [1],TGI [2],TGI [3],TGI [4],TGI [5],TGI [6],TGI [7],TGI [8],TGI [9],TGI [10],TGI [11],TGI [12],TGI [13]
CC1CC/C(=C\c2ccc(Cl)cc2)C(=O)/C1=C\c1ccc(Cl)cc1 (stereo unspecified),50.3 µM,17.7 µM,> 100 µM,93.8 µM,40.1 µM,71.7 µM,57.9 µM,44.9 µM,> 100 µM,95.5 µM,–,–,–
COc1cc(/C=C2\N=C(c3ccccc3)N(c3ccc(S(=O)(=O)Nc4nccs4)cc3)C2=O)ccc1O,> 100 µM,> 100 µM,> 100 µM,> 100 µM,> 100 µM,> 100 µM,> 100 µM,> 100 µM,> 100 µM,> 100 µM,> 100 µM,> 100 µM,–
CN(O)C(=O)c1ccc(OCc2cccc(Cl)c2)cc1,> 100 µM,> 100 µM,> 100 µM,> 100 µM,> 100 µM,> 100 µM,> 100 µM,> 92.6 µM,> 100 µM,> 95.1 µM,> 100 µM,> 51.6 µM,> 53.3 µM
CN(C)c1ccc(/C=C(\NC(=O)c2ccccc2)c2nc3ccccc3c(=O)o2)cc1,> 100 µM,> 100 µM,> 100 µM,> 100 µM,> 100 µM,> 100 µM,> 100 µM,> 100 µM,> 100 µM,> 100 µM,> 100 µM,> 100 µM,> 100 µM
COc1ccccc1-c1n[nH]c(-c2ccccc2O)n1,> 100 µM,> 100 µM,> 100 µM,> 100 µM,> 100 µM,> 100 µM,> 100 µM,> 100 µM,> 100 µM,> 100 µM,> 100 µM,> 100 µM,> 100 µM
Nc1ccc2c(c1)N(C(=O)CCCC(=O)N1CC(CCl)c3ccc(N)cc31)CC2CCl (stereo unspecified),6.53 µM,3.47 µM,> 50 µM,1.94 µM,0.689 µM,0.582 µM,8.94 µM,–,> 26.2 µM,9.67 µM,> 50 µM,11.3 µM,> 50 µM
Nc1c(O)c2c(c(O)c1Cl)C(=O)C=CC2=O,3.38 µM,27.3 µM,3.3 µM,37.1 µM,2.04 µM,21 µM,15.9 µM,32.2 µM,15.8 µM,13.7 µM,6.02 µM,7.76 µM,11.9 µM
Cc1nc(C)c(N2CCN(C(=O)NC(CCC(=O)O)C(=O)O)CC2)c(=O)[nH]1 (stereo unspecified),> 100 µM,> 100 µM,> 100 µM,> 100 µM,–,> 100 µM,> 100 µM,> 100 µM,> 100 µM,> 100 µM,> 100 µM,> 100 µM,> 100 µM
COc1ccc(/C=C/C(=O)c2cccc(C(=O)/C=C/c3ccc(OC)c(OC)c3)n2)cc1OC,44.9 µM,> 100 µM,99.4 µM,> 95.5 µM,> 100 µM,> 86.1 µM,> 100 µM,> 100 µM,> 55.7 µM,30.1 µM,> 100 µM,38.4 µM,> 100 µM
Cc1cccc(/C=N/NC(=S)NC2CCCCC2)n1,> 100 µM,> 71.4 µM,> 84.5 µM,> 100 µM,> 100 µM,76.1 µM,> 90.9 µM,> 100 µM,> 87.8 µM,> 100 µM,> 29.3 µM,88.6 µM,> 89.5 µM
COC(=O)C1=C(O)C(C(=O)OC)[C@]2(O)[C@H](C(=O)OC)[C@H]1C[C@@H](c1ccc(Cl)cc1Cl)[C@H]2C(=O)OC (stereo partly specified),66.6 µM,30.4 µM,28.7 µM,> 100 µM,16.8 µM,33.7 µM,20.9 µM,> 100 µM,14.4 µM,22.2 µM,24.9 µM,17.5 µM,21.9 µM
COC(=O)C1=C(C(=O)OC)C2(c3ccccc3)c3ccccc3C(=O)C1N2C1CCCCC1 (stereo unspecified),> 100 µM,> 100 µM,> 100 µM,> 100 µM,> 100 µM,> 89 µM,> 100 µM,> 100 µM,> 100 µM,> 100 µM,> 100 µM,> 100 µM,> 77.4 µM
CC1(C)C2CC1C(/C=N\OCC(=O)O)=CC2=O (stereo unspecified),> 100 µM,> 100 µM,> 100 µM,> 100 µM,> 100 µM,> 100 µM,> 100 µM,> 100 µM,> 100 µM,> 100 µM,> 100 µM,> 100 µM,> 100 µM
Nc1nc([O-])c([I+]c2ccccc2)c(=O)[nH]1,> 100 µM,> 100 µM,> 100 µM,> 100 µM,> 100 µM,> 100 µM,> 100 µM,> 100 µM,> 100 µM,> 100 µM,> 100 µM,> 100 µM,> 100 µM
CN(C)Cc1cc(N=Nc2c(Cl)cccc2Cl)ccc1O,> 100 µM,> 100 µM,> 100 µM,> 100 µM,52.1 µM,> 100 µM,> 100 µM,> 100 µM,> 100 µM,> 100 µM,> 100 µM,> 100 µM,> 100 µM
CCCCCCCCCCCCOCCCCCCCCC/C=C/c1ccc2c(c1)OCCOCCOCCOCCO2,40.6 µM,–,73.2 µM,47.3 µM,29.7 µM,36.4 µM,51.4 µM,33.5 µM,40.6 µM,50.8 µM,40.6 µM,31.4 µM,44.7 µM
COc1ccc(/C=C/C(=N/NC(=O)N/N=C(/C=C/c2ccc(OC)cc2)C(C)C)C(C)C)cc1,> 100 µM,> 100 µM,> 100 µM,> 100 µM,> 100 µM,> 100 µM,> 100 µM,> 100 µM,> 100 µM,> 100 µM,> 100 µM,> 100 µM,> 100 µM
CC(C)C(=O)CC(Sc1ccc(N)cc1)c1ccccc1 (stereo unspecified),65.6 µM,89.1 µM,> 100 µM,67.6 µM,68.2 µM,89.1 µM,83.9 µM,> 100 µM,32.9 µM,64.9 µM,67.8 µM,63.5 µM,57.5 µM

SMILES,TGI [1],TGI [2],TGI [3],TGI [4],TGI [5],TGI [6],TGI [7],TGI [8],TGI [9],TGI [10],TGI [11],TGI [12],TGI [13]
CSC1=C(C)S/C(=C\c2ccc(/C=C3\SC(C)=C(SC)S3)cc2)S1,> 100 µM,> 100 µM,> 100 µM,> 100 µM,> 100 µM,79 µM,> 100 µM,> 100 µM,> 100 µM,> 100 µM,> 100 µM,92.5 µM,> 100 µM
Cc1cc(Cl)ccc1NC(=O)/C(Cc1nc2ccc(C(=O)c3ccccc3)cc2[nH]c1=O)=N/NC(=O)c1ccncc1,> 100 µM,> 100 µM,> 100 µM,> 100 µM,> 100 µM,> 100 µM,> 100 µM,> 100 µM,> 100 µM,> 100 µM,> 100 µM,> 100 µM,> 100 µM
CN(C(=O)C12C3C4C1C1C2C3C41C(=O)O)C(C)(C)C (stereo unspecified),> 100 µM,> 100 µM,> 100 µM,> 100 µM,> 100 µM,> 100 µM,> 100 µM,> 100 µM,> 100 µM,> 100 µM,> 100 µM,> 100 µM,> 100 µM
Cc1cccc2c1CC(C1OC(=O)c3c(C)cccc31)C2=O (stereo unspecified),> 100 µM,> 100 µM,> 100 µM,> 100 µM,> 100 µM,> 100 µM,> 100 µM,> 100 µM,> 100 µM,> 100 µM,> 100 µM,> 100 µM,> 100 µM
COc1ccc2c(c1OC)C(Br)CCC(Br)(Br)C2=O (stereo unspecified),20.3 µM,29.4 µM,27.7 µM,44.2 µM,14.7 µM,15.1 µM,36.7 µM,3.24 µM,30.4 µM,16.7 µM,30.2 µM,11.7 µM,23.7 µM
O=C(c1c(F)c(F)c(F)c(F)c1F)n1c(=O)[nH]c2ccccc21,37.5 µM,33.6 µM,19.7 µM,38.8 µM,28.7 µM,22 µM,31.6 µM,11.3 µM,25.5 µM,28.3 µM,24 µM,26.7 µM,11.6 µM
[N-]=[N+]=NC1(c2ccccc2)C(=O)c2cccc3c4ccccc4n(c23)C1=O (stereo unspecified),> 100 µM,> 100 µM,> 100 µM,> 100 µM,> 100 µM,> 100 µM,> 100 µM,> 100 µM,> 100 µM,> 100 µM,> 100 µM,> 100 µM,> 100 µM
COC(=O)/N=[N+](\[O-])C(c1ccc(Cl)cc1)c1ccc(Cl)cc1,> 100 µM,> 100 µM,> 100 µM,> 100 µM,78.6 µM,84.1 µM,–,34.5 µM,> 100 µM,> 100 µM,> 100 µM,> 100 µM,> 100 µM
COc1ccc(-c2cc(-c3ccccc3)c3c(n2)-c2ccccc2NC(=O)C3)cc1,> 100 µM,> 100 µM,> 100 µM,30.5 µM,> 100 µM,> 100 µM,> 100 µM,> 100 µM,> 100 µM,> 100 µM,> 100 µM,> 100 µM,> 100 µM
COc1ccccc1/[N+]([O-])=C/c1ccccc1OC(=S)S,> 100 µM,> 100 µM,> 100 µM,> 100 µM,> 100 µM,> 100 µM,–,> 100 µM,> 100 µM,> 100 µM,> 100 µM,> 100 µM,80.4 µM
CCCC[P+](CCCC)(CCCC)C(C(=O)OC)C(C(=O)OC)=C1SC(C(=O)OC)=C(C(=O)OC)S1 (stereo unspecified),> 100 µM,–,> 100 µM,> 100 µM,> 100 µM,> 100 µM,> 100 µM,–,> 100 µM,> 100 µM,> 100 µM,–,–
c1ccc2nc3c(nc2c1)sc1nc2ccccc2n13,> 100 µM,> 100 µM,> 100 µM,> 100 µM,> 100 µM,> 100 µM,–,> 100 µM,> 100 µM,> 100 µM,> 100 µM,> 100 µM,> 100 µM
CCOc1cc(NC(C)=O)ccc1C(=O)NN1C(=O)C(Cl)C1c1ccc(O)c(OC)c1 (stereo unspecified),21.9 µM,28.4 µM,27 µM,51.5 µM,22.8 µM,29.2 µM,35.8 µM,31.4 µM,–,31 µM,38.5 µM,26.8 µM,32.2 µM
O=c1oc2ccccc2cc1-c1nc2ccccc2c(=O)[nH]1,> 100 µM,–,> 100 µM,> 100 µM,> 100 µM,> 100 µM,> 100 µM,> 100 µM,> 100 µM,> 100 µM,–,> 100 µM,> 100 µM
CCOC(=O)Nn1cnnc1Cc1ccccc1,> 100 µM,> 100 µM,> 100 µM,81.4 µM,> 100 µM,–,> 100 µM,> 100 µM,> 100 µM,> 100 µM,> 100 µM,> 100 µM,> 100 µM
O=c1[nH]nc(Cc2ccccc2)n1N=C1CCCCC1,> 100 µM,> 100 µM,> 100 µM,> 100 µM,> 100 µM,> 100 µM,> 100 µM,> 100 µM,> 100 µM,> 100 µM,> 100 µM,–,–
Cc1ccc([N+](=O)[O-])cc1S(=O)(=O)Nc1ccc(C2=NOC(c3ccccc3)C2)cc1 (stereo unspecified),51.9 µM,56.8 µM,79.6 µM,> 100 µM,20.1 µM,9.44 µM,22.9 µM,32.7 µM,–,71.7 µM,10.5 µM,33.4 µM,25.8 µM
O=C1c2scc(-c3ccc(F)cc3)c2-n2cccc21,79.7 µM,3.1 µM,> 100 µM,> 100 µM,> 100 µM,> 100 µM,64.4 µM,> 100 µM,51.9 µM,87.9 µM,> 100 µM,–,91.1 µM
